Assays:
[1] = Therapeutic index, ratio of IC50 for CEM cells to EC50 for HIV1; assay type: cell-based, CCRF-CEM; conditions: human, read-out: Ratio IC50/EC50
CCRF-CEM = experiment: Cytotoxicity against CEM cells; assay type: cell-based; conditions: Homo sapiens
[2] = test system: Human immunodeficiency virus 1; experiment: Antiviral activity against HIV1 in CEM cells; assay type: functional, organism-based; conditions: Human immunodeficiency virus 1, CCRF-CEM

Row | Structure (SMILES) | selectivity ratio [1] | IC50 (CCRF-CEM) [µM] | EC50 [2] [µM]
1 | Cc1cc(Cl)cc2c1S(=O)(=O)N1CCCN=C1S2 | 1180 | 106 | 0.09
2 | Cc1cc2c(cc1Cl)SC1=NCC(C)CN1S2(=O)=O (stereo not drawn) | > 1.23 | > 200 | 162
3 | Cc1cc2c(cc1Cl)SC1=NCCN1S2(=O)=O | 8.2 | 135 | 16.5
4 | Cc1cc2c(cc1Cl)SC1=NCCCN1S2(=O)=O | > 204 | > 200 | 0.98
5 | Cc1cc2c(cc1Cl)SC1=NCC(C)N1S2(=O)=O (stereo not drawn) | 12.6 | 107 | 8.52
6 | Cc1cc2c(cc1Cl)SC1=NC(CCl)CN1S2(=O)=O (stereo not drawn) | 6.4 | 28 | 4.04
7 | Cc1cc2c(cc1Cl)SC1=NC(CSCc3ccccc3)CN1S2(=O)=O (stereo not drawn) |  | 135 | > 200
8 | O=S1(=O)c2ccc(Cl)cc2SC2=NCCCN21 | > 42.1 | > 200 | 4.75

From ChEMBL document CHEMBL1137245, “Synthesis and anti-HIV-1 activity of a novel series of 1,4,2-benzodithiazine-dioxides” (Bioorg Med Chem Lett, 2006)
